Assay results taken from patent US20230085307A1, “PYRIDAZINONE COMPOUND AND HERBICIDE” (NISSAN CHEMICAL CORPORATION, priority 2019, published 2023).

What was measured:
[1] = test system: Italian ryegrass; assay: Test Example 5: herbicidal effect by foliage application, plastic box (Table 20, symbol K); assay type: in vivo, Italian ryegrass (Lolium multiflorum); details: 320 g/ha
Summary of the method: (§1)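 Plants were sown into sterilized diluvial soil under about 1.5 cm cover and kept in a greenhouse at 25° C. to 30° C. Fourteen days on, foliage received an even spray of the diluted emulsion. Herbicidal or crop effect was judged three weeks afterwards.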

[2] = test system: rice flat sedge; assay: Test Example 3: herbicidal effect by foliage application, Wagner pot (Table 18, symbol E); assay type: in vivo, rice flat sedge (Cyperus iria); details: 320 g/ha
Summary of the method: (§2)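 Plants were sown in alluvial soil held under 0.1–0.5 cm standing water and grown 14 days in a greenhouse at 25–30 °C. An emulsifiable formulation, water-diluted to the set dose, was then sprayed onto the foliage, and effects were scored three weeks later using previously defined criteria.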

[3] = test system: windgrass; assay: Test Example 5: herbicidal effect by foliage application, plastic box (Table 20, symbol L); assay type: in vivo, windgrass (Apera spica-venti); details: 320 g/ha
Summary of the method: as §1

[4] = test system: green foxtail; assay: Test Example 5: herbicidal effect by foliage application, plastic box (Table 20, symbol G); assay type: in vivo, green foxtail (Setaria viridis); details: 320 g/ha
Summary of the method: as §1

[5] = test system: chickweed; assay: Test Example 4: herbicidal effect by soil treatment (Table 19, symbol P); assay type: in vivo, common chickweed (Stellaria media); details: amount of applied herbicide 320 g/ha
Summary of the method: (§3)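 In this soil treatment, the formulated compound reached the seeds only through the soil: seeds were buried about 1.5 cm deep in sterilized diluvial soil, then the diluted emulsion was sprayed over the surface. After three weeks at 25° C. to 30° C. in a greenhouse, effects were graded on criteria from an earlier test.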

[6] = test system: Chinese sprangletop; assay: Test Example 3: herbicidal effect by foliage application, Wagner pot (Table 18, symbol D); assay type: in vivo, chinese sprangletop (Leptochloa chinensis); details: 320 g/ha
Summary of the method: as §2

[7] = test system: Italian ryegrass; assay: Test Example 4: herbicidal effect by soil treatment (Table 19, symbol K); assay type: in vivo, Italian ryegrass (Lolium multiflorum); details: amount of applied herbicide 320 g/ha
Summary of the method: as §3

[8] = test system: barnyard grass; assay: Test Example 3: herbicidal effect by foliage application, Wagner pot (Table 18, symbol H); assay type: in vivo, barnyard grass (Echinochloa crus-galli); details: 320 g/ha
Summary of the method: as §2

[9] = test system: green foxtail; assay: Test Example 4: herbicidal effect by soil treatment (Table 19, symbol G); assay type: in vivo, green foxtail (Setaria viridis); details: amount of applied herbicide 320 g/ha
Summary of the method: as §3

[10] = test system: velvetleaf; assay: Test Example 4: herbicidal effect by soil treatment (Table 19, symbol M); assay type: in vivo, velvetleaf (Abutilon theophrasti); details: amount of applied herbicide 320 g/ha
Summary of the method: as §3

[11] = test system: blackgrass; assay: Test Example 4: herbicidal effect by soil treatment (Table 19, symbol J); assay type: in vivo, blackgrass (Alopecurus myosuroides); details: amount of applied herbicide 320 g/ha
Summary of the method: as §3

[12] = test system: redroot pigweed; assay: Test Example 5: herbicidal effect by foliage application, plastic box (Table 20, symbol N); assay type: in vivo, redroot pigweed (Amaranthus retroflexus); details: 320 g/ha
Summary of the method: as §1

[13] = test system: lambsquarters; assay: Test Example 4: herbicidal effect by soil treatment (Table 19, symbol O); assay type: in vivo, lambsquarters (Chenopodium album); details: amount of applied herbicide 320 g/ha
Summary of the method: as §3

[14] = test system: wild oat; assay: Test Example 4: herbicidal effect by soil treatment (Table 19, symbol I); assay type: in vivo, wild oat (Avena fatua); details: amount of applied herbicide 320 g/ha
Summary of the method: as §3

[15] = test system: barnyard grass; assay: Test Example 4: herbicidal effect by soil treatment (Table 19, symbol H); assay type: in vivo, barnyard grass (Echinochloa crus-galli); details: amount of applied herbicide 320 g/ha
Summary of the method: as §3

[16] = test system: persian speedwell; assay: Test Example 5: herbicidal effect by foliage application, plastic box (Table 20, symbol R); assay type: in vivo, Persian speedwell (Veronica persica); details: 320 g/ha
Summary of the method: as §1

[17] = test system: blackgrass; assay: Test Example 5: herbicidal effect by foliage application, plastic box (Table 20, symbol J); assay type: in vivo, blackgrass (Alopecurus myosuroides); details: 320 g/ha
Summary of the method: as §1

[18] = test system: wild oat; assay: Test Example 5: herbicidal effect by foliage application, plastic box (Table 20, symbol I); assay type: in vivo, wild oat (Avena fatua); details: 320 g/ha
Summary of the method: as §1

[19] = test system: persian speedwell; assay: Test Example 4: herbicidal effect by soil treatment (Table 19, symbol R); assay type: in vivo, Persian speedwell (Veronica persica); details: amount of applied herbicide 320 g/ha
Summary of the method: as §3

[20] = test system: windgrass; assay: Test Example 4: herbicidal effect by soil treatment (Table 19, symbol L); assay type: in vivo, windgrass (Apera spica-venti); details: amount of applied herbicide 320 g/ha
Summary of the method: as §3

[21] = test system: barnyard grass; assay: Test Example 5: herbicidal effect by foliage application, plastic box (Table 20, symbol H); assay type: in vivo, barnyard grass (Echinochloa crus-galli); details: 320 g/ha
Summary of the method: as §1

[22] = test system: southern crabgrass; assay: Test Example 4: herbicidal effect by soil treatment (Table 19, symbol F); assay type: in vivo, southern crabgrass (Digitaria ciliaris); details: amount of applied herbicide 320 g/ha
Summary of the method: as §3

[23] = test system: chickweed; assay: Test Example 5: herbicidal effect by foliage application, plastic box (Table 20, symbol P); assay type: in vivo, common chickweed (Stellaria media); details: 320 g/ha
Summary of the method: as §1

[24] = test system: lambsquarters; assay: Test Example 5: herbicidal effect by foliage application, plastic box (Table 20, symbol O); assay type: in vivo, lambsquarters (Chenopodium album); details: 320 g/ha
Summary of the method: as §1

[25] = test system: velvetleaf; assay: Test Example 5: herbicidal effect by foliage application, plastic box (Table 20, symbol M); assay type: in vivo, velvetleaf (Abutilon theophrasti); details: 320 g/ha
Summary of the method: as §1

[26] = test system: redroot pigweed; assay: Test Example 4: herbicidal effect by soil treatment (Table 19, symbol N); assay type: in vivo, redroot pigweed (Amaranthus retroflexus); details: amount of applied herbicide 320 g/ha
Summary of the method: as §3

[27] = test system: southern crabgrass; assay: Test Example 5: herbicidal effect by foliage application, plastic box (Table 20, symbol F); assay type: in vivo, southern crabgrass (Digitaria ciliaris); details: 320 g/ha
Summary of the method: as §1

[28] = foliage application, three weeks after application
[29] = foliage application after 14-day growth, evaluated three weeks after application

| SMILES | herbicidal effect on rice flat sedge (E) [2] | Herbicidal effect by soil treatment, P: chickweed [5] | herbicidal effect on Chinese sprangletop (D) [6] | Herbicidal effect by soil treatment, K: Italian ryegrass [7] | herbicidal effect on barnyard grass (H) [8] | Herbicidal effect by soil treatment, G: green foxtail [9] | Herbicidal effect by soil treatment, M: velvetleaf [10] | Herbicidal effect by soil treatment, J: blackgrass [11] | Herbicidal effect by soil treatment, O: lambsquarters [13] | Herbicidal effect by soil treatment, I: wild oat [14] | Herbicidal effect by soil treatment, H: barnyard grass [15] | Herbicidal effect by soil treatment, R: persian speedwell [19] | Herbicidal effect by soil treatment, L: windgrass [20] | Herbicidal effect by soil treatment, F: southern crabgrass [22] | Herbicidal effect by soil treatment, N: redroot pigweed [26] | further results |
| --- | --- | --- | --- | --- | --- | --- | --- | --- | --- | --- | --- | --- | --- | --- | --- | --- |
| Cc1nn(C)c(=O)c(-c2c(-c3ccc(C(F)(F)F)cc3)sc3cc(F)ccc23)c1O [3-139] | 4 (Herbicidal rate of 70% or more and less than 90%) | 0 (Herbicidal rate of 5% or less (almost no effect)) | 4 (Herbicidal rate of 70% or more and less than 90%) | 0 (Herbicidal rate of 5% or less (almost no effect)) | 4 (Herbicidal rate of 70% or more and less than 90%) | 0 (Herbicidal rate of 5% or less (almost no effect)) | 2 (Herbicidal rate of 20% or more and less than 40%) | 0 (Herbicidal rate of 5% or less (almost no effect)) | 3 (Herbicidal rate of 40% or more and less than 70%) | 0 (Herbicidal rate of 5% or less (almost no effect)) | 0 (Herbicidal rate of 5% or less (almost no effect)) | 1 (Herbicidal rate of 5% or more and less than 20%) | 0 (Herbicidal rate of 5% or less (almost no effect)) | 0 (Herbicidal rate of 5% or less (almost no effect)) | 4 (Herbicidal rate of 70% or more and less than 90%) | K: Italian ryegrass, herbicidal effect grade [1, 28]: 5 (Herbicidal rate of 90% or more (almost completely withered)); L: windgrass, herbicidal effect grade [3, 28]: 5 (Herbicidal rate of 90% or more (almost completely withered)); G: green foxtail, herbicidal effect grade [4, 28]: 4 (Herbicidal rate of 70% or more and less than 90%); N: redroot pigweed, herbicidal effect grade [12, 28]: 3 (Herbicidal rate of 40% or more and less than 70%); R: persian speedwell, herbicidal effect grade [16, 28]: 5 (Herbicidal rate of 90% or more (almost completely withered)); J: blackgrass, herbicidal effect grade [17, 28]: 0 (Herbicidal rate of 5% or less (almost no effect)); I: wild oat, herbicidal effect grade [18, 28]: 3 (Herbicidal rate of 40% or more and less than 70%); H: barnyard grass, herbicidal effect grade [21, 28]: 5 (Herbicidal rate of 90% or more (almost completely withered)); P: chickweed, herbicidal effect grade [23, 28]: 5 (Herbicidal rate of 90% or more (almost completely withered)); O: lambsquarters, herbicidal effect grade [24, 28]: 5 (Herbicidal rate of 90% or more (almost completely withered)); M: velvetleaf, herbicidal effect grade [25, 28]: 5 (Herbicidal rate of 90% or more (almost completely withered)); F: southern crabgrass, herbicidal effect grade [27, 28]: 2 (Herbicidal rate of 20% or more and less than 40%) |
| Cc1nn(C)c(=O)c(-c2c(-c3ccc(OC(F)(F)F)cc3)sc3cc(Cl)ccc23)c1O [3-149] | 4 (Herbicidal rate of 70% or more and less than 90%) | 0 (Herbicidal rate of 5% or less (almost no effect)) | 5 (Herbicidal rate of 90% or more (almost completely withered)) | 0 (Herbicidal rate of 5% or less (almost no effect)) | 4 (Herbicidal rate of 70% or more and less than 90%) | 0 (Herbicidal rate of 5% or less (almost no effect)) | 1 (Herbicidal rate of 5% or more and less than 20%) | 0 (Herbicidal rate of 5% or less (almost no effect)) | 0 (Herbicidal rate of 5% or less (almost no effect)) | 0 (Herbicidal rate of 5% or less (almost no effect)) | 0 (Herbicidal rate of 5% or less (almost no effect)) | 0 (Herbicidal rate of 5% or less (almost no effect)) | 0 (Herbicidal rate of 5% or less (almost no effect)) | 0 (Herbicidal rate of 5% or less (almost no effect)) | 3 (Herbicidal rate of 40% or more and less than 70%) | herbicidal effect on K: Italian ryegrass (evaluation grade 0-5) [1, 29]: 3 (Herbicidal rate of 40% or more and less than 70%); herbicidal effect on L: windgrass (evaluation grade 0-5) [3, 29]: 5 (Herbicidal rate of 90% or more (almost completely withered)); herbicidal effect on G: green foxtail (evaluation grade 0-5) [4, 29]: 4 (Herbicidal rate of 70% or more and less than 90%); herbicidal effect on N: redroot pigweed (evaluation grade 0-5) [12, 29]: 3 (Herbicidal rate of 40% or more and less than 70%); herbicidal effect on R: persian speedwell (evaluation grade 0-5) [16, 29]: 4 (Herbicidal rate of 70% or more and less than 90%); herbicidal effect on J: blackgrass (evaluation grade 0-5) [17, 29]: 5 (Herbicidal rate of 90% or more (almost completely withered)); herbicidal effect on I: wild oat (evaluation grade 0-5) [18, 29]: 0 (Herbicidal rate of 5% or less (almost no effect)); herbicidal effect on H: barnyard grass (evaluation grade 0-5) [21, 29]: 3 (Herbicidal rate of 40% or more and less than 70%); herbicidal effect on P: chickweed (evaluation grade 0-5) [23, 29]: 0 (Herbicidal rate of 5% or less (almost no effect)); herbicidal effect on O: lambsquarters (evaluation grade 0-5) [24, 29]: 4 (Herbicidal rate of 70% or more and less than 90%); herbicidal effect on M: velvetleaf (evaluation grade 0-5) [25, 29]: 4 (Herbicidal rate of 70% or more and less than 90%); herbicidal effect on F: southern crabgrass (evaluation grade 0-5) [27, 29]: 3 (Herbicidal rate of 40% or more and less than 70%) |
